The subject of assay [1] is CA-46 (lymphoma). Description: CellTiter GLO viability assay, CA-46. The assay is classed as cell-based. The settings on record: Homo sapiens, CA46, 144 h, read-out: IC50 (μM) incubation time 144 h. Here is the method: (§1) The CellTiter-Glo Luminescent Cell Viability Assay (Promega) is a homogeneous method of determining the number of viable cells in culture. It is based on quantification of ATP, indicating the presence of metabolically active cells.
(§2) […] After incubation for 3 h in humidified chambers at 37° C./5% CO2 compounds/DMSO were added at different concentrations. […] Cells treated with the compound vehicle DMSO were used as positive controls and cells treated with 10 μM Staurosporine served as negative controls. […] Thereon, mixture and assay plates were equilibrated at room temperature for 20 min. Equal volumes of the reagent-medium-mixture was added to the volume of culture medium present in each well.
(§3) The plates were mixed at ˜200 rpm for 2 minutes on an orbital shaker. The microplates were then incubated at room temperature for 10 minutes for stabilization of the luminescent signal. Following incubation the luminescence is recorded on a Victor microplate reader (Perkin Elmer) using 200 ms integration time. The data were then analyzed with Excel using the XLFIT Plugin (dose response Fit 205) for IC50-determination. As quality control the Z′-factor was calculated from 16 positive and negative control values. Only assay results showing a Z′-factor≥0.5 were used for further analysis.

Assay [2] has as its system NCI-H1299 (lung). Description: CellTiter GLO viability assay, NCI-H1299. The assay is classed as cell-based. Particulars: Homo sapiens, 144 h, read-out: IC50 (μM) incubation time 144 h. As for the experimental part:
as §1
(§4) Cells were seeded on day 1 at cell numbers that assure assay linearity and optimal signal intensity. After incubation for 3 h in humidified chambers at 37° C./5% CO2 compounds/DMSO were added at different concentrations. […] Cells treated with the compound vehicle DMSO were used as positive controls and cells treated with 10 μM Staurosporine served as negative controls. […] Thereon, mixture and assay plates were equilibrated at room temperature for 20 min. Equal volumes of the reagent-medium-mixture was added to the volume of culture medium present in each well.
as §3
(In general: ATP-based viability assays read luminescence as a measure of living cells.)

Assay [3] concerns the target mitochondrial RNA-polymerase (POLRMT) (Mus musculus, UniProt Q8BKF1). Description: Homogeneous TR-FRET assay for mitochondrial transcription activity. Particulars: homogeneous TR-FRET assay according to Example 4; activity class. Format: biochemical. In short, it runs like this: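 TR-FRET read-out (340 nm excitation, 665 nm emission) of a 407 bp transcript captured by Eu-streptavidin/biotin donor and ATTO647N acceptor DNA probes after EDTA stop. Transcription ran 2 h at RT with 500 μM […], mouse POLRMT/TFAM/TFB2M and LSP-plasmid template, after 10 min compound preincubation (10 μM or dilution series).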

Assay [4] relates to HEC-59 (endometrial). Description: CellTiter GLO viability assay, HEC-59. Format: cell-based. The settings on record: 144 h, read-out: IC50 (μM) incubation time 144 h. Here is the method:
as §1, §4, §3

Assay [5] deals with mitochondrial transcription (7S RNA) in HeLa cells. Description: Quantitative real time-PCR assay of inhibition of mitochondrial transcription (cellular qPCR assay IMT). The assay is classed as cell-based. The settings on record: Homo sapiens, 4 h compound incubation, qRT-PCR according to Example 5, activity class. Summed up:
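HeLa cells were exposed 4 h to compound dilution series or DMSO. Mitochondrial 7S RNA, with POLRMT for nuclear transcription, was measured by TaqMan qRT-PCR, normalised to TBP. Biological triplicates were analysed by ΔΔCt and expressed as Rq % (2^-ΔΔCt).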
For orientation: In qPCR the cycle at which signal appears reflects the starting amount.

Assay [6] relates to SW403 (colon). Description: CellTiter GLO viability assay, SW403. The settings on record: Homo sapiens, SW-403, 144 h, read-out: IC50 (μM) incubation time 144 h. The assay is classed as cell-based. As for the experimental part:
as §1, §2, §3

Assay [7] deals with SW948 (colon). Description: CellTiter GLO viability assay, SW948. The assay is classed as cell-based. Particulars: Homo sapiens, 144 h, read-out: IC50 (μM) incubation time 144 h. Here is the method: as §1, §4, §3
Assay [8] relates to SW48 (colon). Description: CellTiter GLO viability assay, SW48. The settings on record: Homo sapiens, 144 h, read-out: IC50 (μM) incubation time 144 h. The assay is classed as cell-based. Here is the method:
as §1, §4, §3

Assay [9] concerns NCI-H596 (lung). Description: CellTiter GLO viability assay, NCI-H596. Format: cell-based. Particulars: Homo sapiens, 144 h, read-out: IC50 (μM) incubation time 144 h. Here is the method: as §1, §4, §3
For assay [10], the system named is NCI-H23 (lung). Description: CellTiter GLO viability assay, NCI-H23. The assay is classed as cell-based. Particulars: for IC50: Homo sapiens, NCI-H23 (lung), 144 h, read-out: IC50 (μM) incubation time 144 h; for sensitivity of the cell line (in words): NCl-H23. Here is the method: as §1, §4, §3
Assay [11] has as its system HRT-18 (colon). Description: CellTiter GLO viability assay, HRT-18. The assay is classed as cell-based. The settings on record: Homo sapiens, 144 h, read-out: IC50 (μM) incubation time 144 h. As for the experimental part: as §1, §4, §3

Where only a bound is given, the exact number is not on record here.

mitochondrial RNA-polymerase (POLRMT), sequence (Q8BKF1 42-1207): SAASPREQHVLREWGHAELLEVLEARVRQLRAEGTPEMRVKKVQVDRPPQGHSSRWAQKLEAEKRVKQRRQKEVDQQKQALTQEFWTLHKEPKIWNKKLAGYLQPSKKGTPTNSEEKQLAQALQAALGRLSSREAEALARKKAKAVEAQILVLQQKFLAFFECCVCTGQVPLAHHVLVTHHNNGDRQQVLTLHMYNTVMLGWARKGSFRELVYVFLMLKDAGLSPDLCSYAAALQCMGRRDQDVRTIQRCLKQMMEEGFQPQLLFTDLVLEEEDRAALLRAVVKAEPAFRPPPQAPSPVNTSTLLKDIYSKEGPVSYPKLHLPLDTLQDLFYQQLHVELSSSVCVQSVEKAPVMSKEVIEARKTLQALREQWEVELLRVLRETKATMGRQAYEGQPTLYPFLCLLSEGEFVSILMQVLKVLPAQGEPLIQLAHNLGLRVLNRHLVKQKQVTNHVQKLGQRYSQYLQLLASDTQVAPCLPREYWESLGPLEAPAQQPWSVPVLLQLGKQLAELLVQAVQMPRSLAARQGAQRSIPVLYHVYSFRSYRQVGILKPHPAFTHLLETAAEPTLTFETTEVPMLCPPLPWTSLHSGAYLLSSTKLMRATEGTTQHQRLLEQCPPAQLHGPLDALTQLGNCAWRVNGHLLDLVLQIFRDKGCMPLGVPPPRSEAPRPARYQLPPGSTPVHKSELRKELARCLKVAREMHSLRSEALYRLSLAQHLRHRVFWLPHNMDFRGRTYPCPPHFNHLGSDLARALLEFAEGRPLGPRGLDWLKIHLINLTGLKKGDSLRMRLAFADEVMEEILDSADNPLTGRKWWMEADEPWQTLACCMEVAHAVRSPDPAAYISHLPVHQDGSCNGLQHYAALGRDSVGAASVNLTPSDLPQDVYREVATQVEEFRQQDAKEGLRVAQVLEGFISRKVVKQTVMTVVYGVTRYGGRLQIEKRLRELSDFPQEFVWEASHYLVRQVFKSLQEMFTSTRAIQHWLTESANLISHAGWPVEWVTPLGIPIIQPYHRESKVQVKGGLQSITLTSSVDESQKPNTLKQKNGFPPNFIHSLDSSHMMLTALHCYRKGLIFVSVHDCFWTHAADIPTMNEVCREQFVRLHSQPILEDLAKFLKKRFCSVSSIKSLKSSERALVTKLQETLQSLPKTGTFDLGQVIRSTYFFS

As to `CC(Oc1ccc2c(-c3ccc(F)cc3Cl)cc(=O)oc2c1)C(=O)N1CCC[C@H](C(=O)O)C1` (stereo partly drawn) [Compound 47, (3S)-1-(2-((4-(2-chloro-4-fluorophenyl)-2-oxo-2H-chromen-7-yl)oxy)propanoyl)piperidine-3-carboxylic acid], the IC50 is 0.1 to 1 µM in [1]; 0.1 to 1 µM in [2]; < 20 nM in [3]; > 10 µM in [4]; < 10 nM in [5]; 0.1 to 1 µM in assay [6]. The half-inhibitory concentration (IC50) in assay [7] is 0.1 to 1 µM; in assay [8] it was 0.1 to 1 µM; in assay [9], 1 to 10 µM; in assay [10] it was > 10 µM; in [11], ≤ 0.1 µM. Moreover, the “sensitivity of the cell line (in words)” value in assay [10] was “resistant”.
As to `Cc1ccccc1-c1cc(=O)oc2cc(OC(C)C(=O)N(C)C)ccc12` (stereo not drawn) [Compound 38, N,N-dimethyl-2-[4-(o-tolyl)-2-oxo-chromen-7-yl]oxy-propanamide], the IC50 was 0.1 to 1 µM in assay [1]; 0.1 to 1 µM in assay [2]; < 20 nM in [3]; > 10 µM in assay [4]; < 10 nM in assay [5]; 0.1 to 1 µM in [6]. In addition, the half-maximal inhibitory concentration (IC50) is 0.1 to 1 µM in assay [7]; 1 to 10 µM in [8]; 1 to 10 µM in assay [9]; 1 to 10 µM in assay [10]; ≤ 0.1 µM in [11]. Further, in assay [10], the “sensitivity of the cell line (in words)” value is “moderate sensitivity”.

Broadly, the IC50 is the midpoint of a concentration-inhibition curve.

For the origin of these results see patent publication US11111238B2, “Coumarin derivatives, processes for their preparation and uses thereof for the treatment of cancer” (Lead Discovery Center GmbH, priority 2017, dated 2021).
